According to the supplement of paper PMC4862054:

Key:
Conditions in all cases: incubation time: 72 h
HCC1937 [1] = assay: normalised response (% of control), CellTox Green; higher = less cell death (100 = DMSO, 0 = benzethonium chloride kill control)
How it was run: (§1)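 Each value is the plate-normalised signal at one concentration of the series. Breast cancer cell lines (20 µl suspension) were incubated 72 h in 384-well plates with compound at 5 concentrations in 10-fold steps over a compound-specific 10,000-fold range. CellTox Green and then CellTiter-Glo were read, and each plate was scaled to 0.1 % DMSO (100) and a positive kill control (0).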

BT-549 [2] = assay: as above
How it was run: as §1

BT-474 [3] = assay: as above
How it was run: as §1

CAL-51 [4] = assay: as above
How it was run: as §1

DU-4475 [5] = assay: as above
How it was run: as §1

MCF-10A [6] = assay: as above
How it was run: as §1

HDQ-P1 [7] = assay: as above
How it was run: as §1

MDA-MB-453 [8] = assay: as above
How it was run: as §1

CAL-148 [9] = assay: as above
How it was run: as §1

CAL-85-1 [10] = assay: as above
How it was run: as §1

MDA-MB-436 [11] = assay: as above
How it was run: as §1

Hs578T [12] = assay: as above
How it was run: as §1

HCC1599 [13] = assay: as above
How it was run: as §1

MDA-MB-468 [14] = assay: as above
How it was run: as §1

CAL-120 [15] = assay: as above
How it was run: as §1

HCC1143 [16] = assay: as above
How it was run: as §1

MFM-223 [17] = assay: as above
How it was run: as §1

MDA-MB-231 [18] = assay: as above
How it was run: as §1

HCC1937 [19] = assay: normalised response (% of control), CellTiter-Glo; higher = more viable cells (100 = DMSO, 0 = benzethonium chloride kill control)
Description: (§2)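 DSRT, 72 h incubation, CellTox Green / CellTiter-Glo readout. Signal is normalised to DMSO and benzethonium chloride controls. Value is the normalised response at the highest dose.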

BT-549 [20] = assay: as above
Description: as §2

BT-474 [21] = assay: as above
Description: as §2

CAL-51 [22] = assay: as above
Description: as §2

DU-4475 [23] = assay: as above
Description: as §2

MCF-10A [24] = assay: as above
Description: as §2

HDQ-P1 [25] = assay: as above
Description: as §2

MDA-MB-453 [26] = assay: as above
Description: as §2

CAL-148 [27] = assay: as above
Description: as §2

CAL-85-1 [28] = assay: as above
Description: as §2

SK-BR-3 = assay: as above
Description: as §2

MDA-MB-436 [29] = assay: as above
Description: as §2

Hs578T [30] = assay: as above
Description: as §2

HCC1599 [31] = assay: as above
Description: as §2

MDA-MB-468 [32] = assay: as above
Description: as §2

CAL-120 [33] = assay: as above
Description: as §2

HCC1143 [34] = assay: as above
Description: as §2

MFM-223 [35] = assay: as above
Description: as §2

MDA-MB-231 [36] = assay: as above
Description: as §2

Compound | normalised response (HCC1937 [1]) | normalised response (BT-549 [2]) | normalised response (BT-474 [3]) | normalised response (CAL-51 [4]) | normalised response (DU-4475 [5]) | normalised response (MCF-10A [6]) | normalised response (HDQ-P1 [7]) | normalised response (MDA-MB-453 [8]) | normalised response (CAL-148 [9]) | normalised response (CAL-85-1 [10]) | normalised response (MDA-MB-436 [11]) | normalised response (Hs578T [12]) | normalised response (HCC1599 [13]) | normalised response (MDA-MB-468 [14]) | normalised response (CAL-120 [15]) | normalised response (HCC1143 [16]) | normalised response (MFM-223 [17]) | normalised response (MDA-MB-231 [18]) | normalised response (HCC1937 [19]) | normalised response (BT-549 [20]) | normalised response (BT-474 [21]) | normalised response (CAL-51 [22]) | normalised response (DU-4475 [23]) | normalised response (MCF-10A [24]) | normalised response (HDQ-P1 [25]) | normalised response (MDA-MB-453 [26]) | normalised response (CAL-148 [27]) | normalised response (CAL-85-1 [28]) | normalised response (SK-BR-3) | normalised response (MDA-MB-436 [29]) | normalised response (Hs578T [30]) | normalised response (HCC1599 [31]) | normalised response (MDA-MB-468 [32]) | normalised response (CAL-120 [33]) | normalised response (HCC1143 [34]) | normalised response (MFM-223 [35]) | normalised response (MDA-MB-231 [36])
CCc1cncnc1N1CCN(Cc2nc3ccc(C(F)(F)F)cc3[nH]2)CC1 (10000 nM) | 90.2% | 95.6% | 93% | 94.5% | 104% | 105% | 63.1% | 99.9% | 103% | 67.3% | 102% | 72.9% | 99.2% | 103% | 99.6% | 117% | 103% | 118% | 82.1% | 83.9% | 85.8% | 49.3% | 89.9% | 93.8% | 102% | 81.6% | 95.4% | 91.8% | 89.5% | 95.7% | 95.7% | 85.7% | 70% | 89% | 90% | 78.3% | 95%
CC[C@@H]1C(=O)N(C)c2cnc(Nc3ccc(C(=O)NC4CCN(C)CC4)cc3OC)nc2N1C1CCCC1 [BI 2536] (1000 nM) | 109% | 90.3% | 97.5% | 32% | 95.1% | 100% | 93% | 101% | 70.4% | 43.9% | 102% | 29.2% | 92.2% | 98.3% | 79.6% | 113% | 90.7% | 101% | 74.7% | 28.3% | 75.9% | 31.7% | 75.6% | 44.4% | 66.6% | 58.9% | 79.9% | 44.7% | 26.9% | 73.8% | 24.2% | 26.5% | 42.3% | 52.5% | 39.3% | 55.6% | 72.4%
O=C(O)CCCCC(CCSCc1ccccc1)SCc1ccccc1 (configuration not stated) [CPI-613] (10000 nM) | 80.9% | 80.4% | 94.8% | 103% | 98.8% | 104% | 104% | 104% | 99.7% | 88.7% | 91.2% | 94.3% | 102% | 131% | 98.6% | 92.7% | 97.6% | 90.9% | 108% | 96.5% | 98.9% | 97.5% | 100% | 103% | 106% | 105% | 105% | 97.5% | 106% | 98.2% | 99.2% | 101% | 98.2% | 104% | 100% | 102% | 93.6%
O=C(O)C1(C(=O)O)CCC1.[NH2-].[NH2-].[Pt+2] [Carboplatin] (10000 nM) | 101% | 88.1% | 106% | 97.1% | 99.8% | 117% | 80.6% | 94.3% | 97.8% | 99.3% | 99.8% | 135% | 100% | 108% | 103% | – | 94% | 103% | 89.2% | 103% | 98.8% | 114% | 96.9% | 99.2% | 101% | 95.8% | 103% | 96.4% | 92.8% | 92.5% | 99.3% | 108% | 92.4% | 101% | 103% | 102% | 96.9%
